Experimental data reported in patent publication US9265845B2, “Imaging methods using engineered integrin binding peptides” (The Board of Trustees of the Leland Stanford Junior …, priority 2006, dated 2016).
Positions of bridges follow the written chain, without caps; N, C: chain ends. Residues, ends and D or L forms follow the SMILES beside them. No end group written: not given here.

Assays:
U87MG glioblastoma cells = assay: Direct equilibrium binding titration on U87MG glioblastoma cells; conditions: for Kd: recombinant peptides with FLAG and His tags, 3 h at 4° C.
Description: Direct equilibrium binding titrations of the recombinant engineered AgRP peptides were performed on U87MG glioblastoma cells. Peptides were incubated with cells for 3 h at 4° C., followed by staining with a fluorescein-conjugated anti-His antibody and analysis by flow cytometry. Equilibrium binding constant (KD) values were obtained by fitting plots of concentration versus mean fluorescence intensity to a sigmoidal curve using KaleidaGraph software.
(§1) All cell lines were cultured at 37° C. with 5% CO2. Adherent U87MG cells were obtained from ATCC and cultured in DMEM media (Gibco 11995) supplemented with 10% fetal bovine serum. Untransfected K562 cells (α5 β1-positive) were obtained from ATCC and cultured in suspension in IMDM media (Gibco 12440) supplemented with 10% fetal bovine serum. K562 cells stably transfected with αv β3, αv β5, or αiib β3 integrins were obtained from S. Blystone (Blystone, S. D., Graham, I. L., Lindberg, F. P. & Brown, E. J. (1994). Integrin avb3 differentially regulates adhesive and phagocytic functions of the fibronectin receptor a5b1. J. Cell Biol. 127, 1129-1137) and were grown in media supplemented with 10 μg/mL geneticin. Equilibrium binding assays were performed with 10^5 cells per reaction. Cells were suspended in IBB with varying amounts of engineered AgRP peptide at 4° C. for 3 h with gentle rocking. The cells were washed and resuspended in BPBS with a 1:40 dilution of fluorescein-conjugated anti-6×-His antibody (Bethyl A190-113F) and incubated on ice for 20 min. After washing, the cells were analyzed by flow cytometry using a BD FACSCalibur instrument and CellQuest software (Becton Dickinson, Franklin Lakes, N.J.). Mean fluorescence intensity values for each cell population was plotted against concentration on a log scale. Data was fit to sigmoidal curves to obtain equilibrium dissociation constants using KaleidaGraph (Synergy Software), and is presented as average values with standard deviations. Each assay was performed a minimum of three times.

K562-αvβ3 cells = assay: Equilibrium binding to K562 cells expressing αvβ3 integrin; conditions: recombinant peptides with FLAG and His tags
Description: To determine the binding specificities of the AgRP peptides for αvβ3 integrin versus the αvβ5 and α5β1 integrins also expressed on U87MG cells, K562 leukemia cells that had been stably transfected with individual α and β integrin subunits were used. The engineered AgRP peptides were tested for binding to untransfected K562 cells, which intrinsically express α5β1 integrin. Equilibrium binding assays were performed on the untransfected K562 cells as described above for the U87MG cells. Three peptide concentrations were tested. Negligible signal over background levels (cells stained with fluorescein-conjugated anti-His antibody alone) even at 500 nM, the highest concentration tested, was observed.
The engineered AgRP peptides were tested for binding to K562 cells expressing αvβ5 αiiiβ3 or αvβ3 integrins. The peptides were tested at three concentrations with very little signal over background for cells expressing αvβ5 integrin, even at 500 nM, the highest concentration. The peptides bound weakly to the K562 cells expressing αiiβ3 integrins and, as expected, strongly to the K562 cells expressing αvβ3 integrins. In order to determine KD values for the engineered AgRP peptides against K562-αiiβ3 and K562-αvβ3 cells, binding titrations were done over a larger range of concentrations. […] KD values for peptide binding to K562-αiibβ3 cells could not be determined because binding was still increasing at the highest concentration (5 μM) of peptides tested.
as §1, with “Data was fit to sigmoidal curves to obtain equilibrium dissociation constants using KaleidaGraph (Synergy Software), and is presented as average values with standard deviations. Each assay was performed a minimum of three times.” left out

αvβ3 integrin = αvβ3 integrin (Homo sapiens, UniProt P05106+P06756); assay: Competition of 125I-echistatin to detergent-solubilized plate-coated integrin; assay type: binding; conditions: 0.06 nM 125I echistatin, 5 nM and 50 nM peptide
Sequence of αvβ3 integrin (P06756 31-889 limits assumed): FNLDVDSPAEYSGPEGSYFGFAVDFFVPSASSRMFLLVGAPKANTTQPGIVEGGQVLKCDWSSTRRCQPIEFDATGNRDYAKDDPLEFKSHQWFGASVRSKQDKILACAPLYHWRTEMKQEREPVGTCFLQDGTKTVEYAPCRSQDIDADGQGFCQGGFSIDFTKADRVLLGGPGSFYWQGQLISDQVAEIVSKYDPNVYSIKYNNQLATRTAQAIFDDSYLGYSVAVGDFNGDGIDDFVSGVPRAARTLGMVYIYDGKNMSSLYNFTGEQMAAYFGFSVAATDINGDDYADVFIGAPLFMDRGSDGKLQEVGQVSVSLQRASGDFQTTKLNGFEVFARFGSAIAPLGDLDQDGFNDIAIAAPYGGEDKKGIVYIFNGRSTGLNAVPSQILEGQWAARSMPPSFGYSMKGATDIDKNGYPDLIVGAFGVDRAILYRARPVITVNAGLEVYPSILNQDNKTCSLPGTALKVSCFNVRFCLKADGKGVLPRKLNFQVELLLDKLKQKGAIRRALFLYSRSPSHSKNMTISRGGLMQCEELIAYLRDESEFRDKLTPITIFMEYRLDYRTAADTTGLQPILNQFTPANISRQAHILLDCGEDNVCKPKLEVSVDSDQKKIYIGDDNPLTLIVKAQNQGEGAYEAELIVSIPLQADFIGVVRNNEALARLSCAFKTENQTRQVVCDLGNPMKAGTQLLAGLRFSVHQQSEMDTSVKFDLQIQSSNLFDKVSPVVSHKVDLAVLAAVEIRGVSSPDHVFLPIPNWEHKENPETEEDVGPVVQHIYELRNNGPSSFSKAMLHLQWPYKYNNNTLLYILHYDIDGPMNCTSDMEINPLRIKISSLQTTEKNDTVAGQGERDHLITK
Sequence of αvβ3 integrin (P06756 891-1048 partner limits assumed): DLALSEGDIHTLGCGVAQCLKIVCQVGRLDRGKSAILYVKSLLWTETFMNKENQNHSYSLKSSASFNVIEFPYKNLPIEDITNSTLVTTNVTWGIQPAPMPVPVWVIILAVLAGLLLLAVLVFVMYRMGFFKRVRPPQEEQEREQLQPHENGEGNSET
Sequence of αvβ3 integrin (P05106 27-788): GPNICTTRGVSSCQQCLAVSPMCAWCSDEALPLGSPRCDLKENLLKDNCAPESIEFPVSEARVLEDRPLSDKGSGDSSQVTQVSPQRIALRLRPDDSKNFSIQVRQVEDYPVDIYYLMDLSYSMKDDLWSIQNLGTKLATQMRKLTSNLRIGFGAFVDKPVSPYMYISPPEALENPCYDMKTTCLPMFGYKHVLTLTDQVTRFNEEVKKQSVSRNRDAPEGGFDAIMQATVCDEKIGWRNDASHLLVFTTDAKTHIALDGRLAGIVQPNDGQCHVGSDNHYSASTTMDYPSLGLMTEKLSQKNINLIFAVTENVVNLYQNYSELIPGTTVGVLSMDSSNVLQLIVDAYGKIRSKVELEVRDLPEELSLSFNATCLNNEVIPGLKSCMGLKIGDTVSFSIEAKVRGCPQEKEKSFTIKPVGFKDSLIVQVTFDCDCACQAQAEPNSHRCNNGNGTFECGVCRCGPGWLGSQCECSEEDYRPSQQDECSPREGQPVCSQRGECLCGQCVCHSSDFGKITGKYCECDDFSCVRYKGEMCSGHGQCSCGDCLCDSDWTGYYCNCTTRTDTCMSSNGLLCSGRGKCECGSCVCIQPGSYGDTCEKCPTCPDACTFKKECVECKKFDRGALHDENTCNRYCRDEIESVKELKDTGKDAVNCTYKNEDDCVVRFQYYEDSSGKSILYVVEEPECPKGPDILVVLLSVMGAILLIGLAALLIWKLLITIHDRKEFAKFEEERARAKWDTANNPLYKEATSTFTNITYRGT
Description: (§2) FIG. 10A through FIG. 10D is a series of histograms showing binding specificities to integrins αvβ3, αvβ5, α5β1, and αiibβ3 for engineered EETI-RGD peptides compared to controls. Error bars represent experiments performed in triplicate. Competition binding of 0.06 nM ^125I echistatin with 5 nM (black bars) and 50 nM (grey bars) unlabeled peptide to plate-coated integrins was measured. […] The engineered peptides have very little binding to αiibβ3 integrin.
(§3) This was done by competition of ^125I-echistatin to detergent-solubilized integrin receptors coated onto microtiter plates (see FIG. 10). […] This is consistent with previous studies which have shown αv integrin receptors can accommodate a wide range of RGD-containing cyclic structures. […] However, since α5β1 integrins are expressed on many tumors and are all involved in mediating angiogenesis and metastasis, a broad spectrum agent that targets all three integrins will be useful for diagnostic and therapeutic applications. With the exception of echistatin, all of the RGD-containing peptides bound weakly to the αiibβ3 receptor, showing the specificity of the present peptides for the αv and α5-containing integrin heterodimers. This characteristic is valuable for molecular imaging and therapeutic applications, since binding to αiibβ3 on platelet cells prevents blood clotting and would lead to non-specific in vivo effects.

αiibβ3 integrin = αiibβ3 integrin (Homo sapiens, UniProt P05106+P08514); assay: as above; assay type: binding; conditions: 0.06 nM 125I echistatin, 5 nM and 50 nM peptide
Description: as §2, §3

αvβ5 integrin = αvβ5 integrin (Homo sapiens, UniProt P06756+P18084); assay: as above; assay type: binding; conditions: 0.06 nM 125I echistatin, 5 nM and 50 nM peptide
Sequence of αvβ5 integrin (P06756 31-889 limits assumed): as the sequence (P06756 31-889 limits assumed) above
Sequence of αvβ5 integrin (P06756 891-1048 partner limits assumed): as the sequence (P06756 891-1048 partner limits assumed) above
Sequence of αvβ5 integrin (P18084 24-799): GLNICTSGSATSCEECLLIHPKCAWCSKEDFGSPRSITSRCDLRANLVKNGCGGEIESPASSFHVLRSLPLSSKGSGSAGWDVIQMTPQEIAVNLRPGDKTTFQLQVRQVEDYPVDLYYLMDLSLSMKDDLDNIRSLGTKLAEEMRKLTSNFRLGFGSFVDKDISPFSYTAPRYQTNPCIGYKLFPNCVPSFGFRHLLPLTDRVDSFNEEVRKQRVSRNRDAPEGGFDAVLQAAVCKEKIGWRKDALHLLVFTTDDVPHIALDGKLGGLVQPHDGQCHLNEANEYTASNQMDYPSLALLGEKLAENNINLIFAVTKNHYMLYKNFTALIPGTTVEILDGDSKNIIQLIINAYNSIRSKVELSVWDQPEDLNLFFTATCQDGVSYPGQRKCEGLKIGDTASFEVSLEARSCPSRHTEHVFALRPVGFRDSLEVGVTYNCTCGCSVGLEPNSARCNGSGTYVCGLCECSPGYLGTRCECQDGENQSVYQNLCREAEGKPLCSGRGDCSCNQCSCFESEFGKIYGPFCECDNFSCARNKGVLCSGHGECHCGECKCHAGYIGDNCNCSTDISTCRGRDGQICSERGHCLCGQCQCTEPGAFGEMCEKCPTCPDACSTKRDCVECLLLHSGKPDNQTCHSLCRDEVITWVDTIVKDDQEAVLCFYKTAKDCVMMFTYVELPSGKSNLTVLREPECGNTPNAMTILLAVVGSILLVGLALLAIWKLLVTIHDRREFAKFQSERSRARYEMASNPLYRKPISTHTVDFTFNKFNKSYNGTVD
Description: as §2, §3

α5β1 integrin = α5β1 integrin (Homo sapiens, UniProt P05556+P08648); assay: as above; assay type: binding; conditions: 0.06 nM 125I echistatin, 5 nM and 50 nM peptide
Sequence of α5β1 integrin (P08648 42-894 limits assumed): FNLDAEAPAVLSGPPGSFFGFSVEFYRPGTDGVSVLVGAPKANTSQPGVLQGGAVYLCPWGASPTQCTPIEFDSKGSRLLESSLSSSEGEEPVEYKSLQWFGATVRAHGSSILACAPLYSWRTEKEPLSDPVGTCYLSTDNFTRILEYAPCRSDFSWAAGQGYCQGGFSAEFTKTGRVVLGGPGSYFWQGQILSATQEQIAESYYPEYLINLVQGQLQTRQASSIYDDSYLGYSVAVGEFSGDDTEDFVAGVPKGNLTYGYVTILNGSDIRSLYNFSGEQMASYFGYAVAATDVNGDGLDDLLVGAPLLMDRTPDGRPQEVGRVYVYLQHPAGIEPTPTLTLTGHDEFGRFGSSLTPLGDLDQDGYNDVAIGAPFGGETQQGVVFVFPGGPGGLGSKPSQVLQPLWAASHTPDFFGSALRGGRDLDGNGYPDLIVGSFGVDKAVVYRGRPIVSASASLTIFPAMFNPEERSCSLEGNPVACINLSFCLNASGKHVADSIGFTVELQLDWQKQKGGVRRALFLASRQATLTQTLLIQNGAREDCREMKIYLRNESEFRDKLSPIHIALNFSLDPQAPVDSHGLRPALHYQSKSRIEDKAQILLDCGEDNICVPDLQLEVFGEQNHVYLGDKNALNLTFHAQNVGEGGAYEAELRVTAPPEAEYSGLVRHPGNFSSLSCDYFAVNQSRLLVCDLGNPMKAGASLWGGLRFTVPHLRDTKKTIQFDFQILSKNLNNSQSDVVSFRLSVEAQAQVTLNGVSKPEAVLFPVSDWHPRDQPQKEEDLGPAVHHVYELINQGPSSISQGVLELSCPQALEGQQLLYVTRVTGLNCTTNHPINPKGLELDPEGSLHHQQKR
Sequence of α5β1 integrin (P08648 895-1049 partner limits assumed): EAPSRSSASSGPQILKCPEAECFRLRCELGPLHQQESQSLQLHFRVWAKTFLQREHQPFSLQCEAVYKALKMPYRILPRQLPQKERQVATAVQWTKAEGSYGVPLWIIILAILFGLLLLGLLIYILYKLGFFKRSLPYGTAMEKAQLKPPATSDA
Sequence of α5β1 integrin (P05556 21-798): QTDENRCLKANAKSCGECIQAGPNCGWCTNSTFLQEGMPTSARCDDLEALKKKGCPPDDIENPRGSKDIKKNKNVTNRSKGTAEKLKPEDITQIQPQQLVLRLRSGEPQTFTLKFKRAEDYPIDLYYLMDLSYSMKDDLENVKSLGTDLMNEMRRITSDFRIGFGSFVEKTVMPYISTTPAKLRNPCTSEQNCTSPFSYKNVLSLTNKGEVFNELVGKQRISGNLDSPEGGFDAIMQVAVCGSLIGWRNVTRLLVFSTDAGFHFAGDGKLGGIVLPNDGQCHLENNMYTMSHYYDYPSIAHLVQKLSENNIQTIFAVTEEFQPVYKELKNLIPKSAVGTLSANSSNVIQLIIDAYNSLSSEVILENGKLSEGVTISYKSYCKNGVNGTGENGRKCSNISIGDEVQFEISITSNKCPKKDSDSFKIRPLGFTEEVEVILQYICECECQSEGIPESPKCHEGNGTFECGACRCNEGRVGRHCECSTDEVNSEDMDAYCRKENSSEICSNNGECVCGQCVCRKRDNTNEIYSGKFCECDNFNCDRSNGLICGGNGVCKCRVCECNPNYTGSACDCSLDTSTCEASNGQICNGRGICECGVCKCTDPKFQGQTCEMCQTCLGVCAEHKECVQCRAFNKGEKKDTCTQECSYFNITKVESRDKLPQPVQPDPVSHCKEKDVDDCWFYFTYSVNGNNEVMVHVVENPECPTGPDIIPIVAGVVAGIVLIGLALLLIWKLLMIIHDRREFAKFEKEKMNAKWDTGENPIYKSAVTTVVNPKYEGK
Description: as §2, §3

Row | binding to αvβ3 integrin, in words (αvβ3 integrin) | binding to αiibβ3 integrin, in words (αiibβ3 integrin) | binding to αvβ5 integrin, in words (αvβ5 integrin) | binding to α5β1 integrin, in words (α5β1 integrin) | Compound | Kd (U87MG glioblastoma cells) [nM] | Kd (K562-αvβ3 cells) [nM] | fold improvement in affinity over the worst binder, 6C (U87MG glioblastoma cells) [fold]
1 | – | – | – | – | CC(C)C[C@@H]1NC(=O)[C@@H]2CSSC[C@@H]3NC(=O)[C@H]([C@@H](C)O)NC(=O)[C@H](C)NC(=O)[C@H](C)NC(=O)[C@@H]4CCCN4C(=O)[C@H](CC(=O)O)NC(=O)[C@H](CSSC[C@H](NC(=O)CN)C(=O)N[C@@H](C(C)C)C(=O)N[C@@H](CCCNC(=N)N)C(=O)N[C@@H](CC(C)C)C(=O)N[C@@H](Cc4c[nH]cn4)C(=O)N[C@@H](CCC(=O)O)C(=O)N[C@@H](CO)C(=O)N2)NC(=O)[C@H](CSSC[C@@H](C(=O)N[C@@H](CCCNC(=N)N)C(=O)O)NC(=O)[C@H](Cc2ccc(O)cc2)NC(=O)[C@@H]2CSSC[C@H](NC(=O)[C@H](Cc4ccc(O)cc4)NC3=O)C(=O)N[C@@H]([C@@H](C)O)C(=O)NCC(=O)N[C@@H](CCCNC(=N)N)C(=O)NCC(=O)N[C@@H](CC(=O)O)C(=O)N[C@@H](CCC(=O)O)C(=O)N[C@@H](CCCCN)C(=O)N[C@@H](CC(C)C)C(=O)N[C@@H](CCCNC(=N)N)C(=O)N2)NC(=O)[C@@H]2CCCN2C(=O)[C@H](C(C)C)NC(=O)[C@H](CCC(N)=O)NC(=O)[C@H](CCC(N)=O)NC(=O)CNC1=O [6C] (H-GCVRLHESCLGQQVPCCDPAATCYCTGRGDEKLRCYCR-OH; disulfide 2-17, 9-23, 16-37, 25-35; N-terminus and C-terminus assumed) | 13 ± 2 | 15 ± 4 | –
2 | – | – | – | – | CC(C)C[C@@H]1NC(=O)[C@@H]2CSSC[C@@H]3NC(=O)[C@H]([C@@H](C)O)NC(=O)[C@H](C)NC(=O)[C@H](C)NC(=O)[C@@H]4CCCN4C(=O)[C@H](CC(=O)O)NC(=O)[C@H](CSSC[C@H](NC(=O)CN)C(=O)N[C@@H](C(C)C)C(=O)N[C@@H](CCCNC(=N)N)C(=O)N[C@@H](CC(C)C)C(=O)N[C@@H](Cc4c[nH]cn4)C(=O)N[C@@H](CCC(=O)O)C(=O)N[C@@H](CO)C(=O)N2)NC(=O)[C@H](CSSC[C@@H](C(=O)N[C@@H](CCCNC(=N)N)C(=O)O)NC(=O)[C@H](Cc2ccc(O)cc2)NC(=O)[C@@H]2CSSC[C@H](NC(=O)[C@H](Cc4ccc(O)cc4)NC3=O)C(=O)N[C@@H](CO)C(=O)NCC(=O)N[C@@H](CCCNC(=N)N)C(=O)NCC(=O)N[C@@H](CC(=O)O)C(=O)N[C@@H](CC(N)=O)C(=O)N[C@@H](CC(=O)O)C(=O)N[C@@H](CC(C)C)C(=O)N[C@@H](C(C)C)C(=O)N2)NC(=O)[C@@H]2CCCN2C(=O)[C@H](C(C)C)NC(=O)[C@H](CCC(N)=O)NC(=O)[C@H](CCC(N)=O)NC(=O)CNC1=O [7A] (H-GCVRLHESCLGQQVPCCDPAATCYCSGRGDNDLVCYCR-OH; disulfide 2-17, 9-23, 16-37, 25-35; N-terminus and C-terminus assumed) | 0.78 ± 0.37 | 0.89 ± 0.36 | 17
3 | – | – | – | – | CC(C)C[C@@H]1NC(=O)[C@@H]2CSSC[C@@H]3NC(=O)[C@H]([C@@H](C)O)NC(=O)[C@H](C)NC(=O)[C@H](C)NC(=O)[C@@H]4CCCN4C(=O)[C@H](CC(=O)O)NC(=O)[C@H](CSSC[C@H](NC(=O)CN)C(=O)N[C@@H](C(C)C)C(=O)N[C@@H](CCCNC(=N)N)C(=O)N[C@@H](CC(C)C)C(=O)N[C@@H](Cc4c[nH]cn4)C(=O)N[C@@H](CCC(=O)O)C(=O)N[C@@H](CO)C(=O)N2)NC(=O)[C@H](CSSC[C@@H](C(=O)N[C@@H](CCCNC(=N)N)C(=O)O)NC(=O)[C@H](Cc2ccc(O)cc2)NC(=O)[C@@H]2CSSC[C@H](NC(=O)[C@H](Cc4ccc(O)cc4)NC3=O)C(=O)N[C@@H](C(C)C)C(=O)NCC(=O)N[C@@H](CCCNC(=N)N)C(=O)NCC(=O)N[C@@H](CC(=O)O)C(=O)N[C@@H](CC(=O)O)C(=O)N[C@@H](CC(N)=O)C(=O)N[C@@H](CC(C)C)C(=O)N[C@@H](CCCCN)C(=O)N2)NC(=O)[C@@H]2CCCN2C(=O)[C@H](C(C)C)NC(=O)[C@H](CCC(N)=O)NC(=O)[C@H](CCC(N)=O)NC(=O)CNC1=O [7E] (H-GCVRLHESCLGQQVPCCDPAATCYCVGRGDDNLKCYCR-OH; disulfide 2-17, 9-23, 16-37, 25-35; N-terminus and C-terminus assumed) | 1.4 ± 0.5 | 1.6 ± 1.1 | –
4 | – | – | – | – | CSCC[C@@H]1NC(=O)[C@H](CC(=O)O)NC(=O)[C@H](CCCNC(=N)N)NC(=O)[C@H](CC(=O)O)NC(=O)CNC(=O)[C@H](CCCNC(=N)N)NC(=O)CNC(=O)[C@H](CCC(=O)O)NC(=O)[C@@H]2CSSC[C@H](NC(=O)[C@H](CCCCN)NC1=O)C(=O)N[C@@H](Cc1ccc(O)cc1)C(=O)N[C@H](C(=O)N[C@@H](CCCNC(=N)N)C(=O)O)CSSC[C@@H]1NC(=O)[C@@H]3CCCN3C(=O)[C@H](C(C)C)NC(=O)[C@H](CCC(N)=O)NC(=O)[C@H](CCC(N)=O)NC(=O)CNC(=O)[C@H](CC(C)C)NC(=O)[C@@H]3CSSC[C@H](NC(=O)[C@H]([C@@H](C)O)NC(=O)[C@H](C)NC(=O)[C@H](C)NC(=O)[C@@H]4CCCN4C(=O)[C@H](CC(=O)O)NC(=O)[C@H](CSSC[C@H](NC(=O)CN)C(=O)N[C@@H](C(C)C)C(=O)N[C@@H](CCCNC(=N)N)C(=O)N[C@@H](CC(C)C)C(=O)N[C@@H](Cc4c[nH]cn4)C(=O)N[C@@H](CCC(=O)O)C(=O)N[C@@H](CO)C(=O)N3)NC1=O)C(=O)N[C@@H](Cc1ccc(O)cc1)C(=O)N2 [7J] (H-GCVRLHESCLGQQVPCCDPAATCYCEGRGDRDMKCYCR-OH; disulfide 2-17, 9-23, 16-37, 25-35; N-terminus and C-terminus assumed) | 8.3 ± 1.8 | 16 ± 8 | –
5 | did not bind | did not bind | did not bind | did not bind | DOTA-conjugated FN-RDG2: DOTA conjugate of negative control with RGD switched to RDG (GCVTGRDGSPASSCSQDSDCLAGCVCGPNGFCG; cysteine pairing not given here; also: DOTA conjugate, position not given here) | – | – | –
